Consider 52 compounds from PubChem BioAssay AID1996.

Molecules are shown by their SMILES. ≈ marks a conversion by molar mass, not a printed value.

The conditions of the data set: buffer; pH 7.4; 200.0 µM.
In turn, `COc1ccc(-c2csc(Nc3cccc(C)n3)n2)cc1C` gave a kinetic solubility of 3.4 µg/mL (≈ 10.9 µM).

Take `COc1cccc(CN2CCN(c3ncccn3)CC2)c1OC`: the solubility (kinetic) was 35.7 µg/mL (≈ 114 µM).

For `Cc1cccc(/C=C(\C#N)C(=O)Nc2ccccn2)c1`, the kinetic solubility amounted to 33.3 µg/mL (≈ 126 µM).

As for `O=C(COC(=O)c1ccc([N+](=O)[O-])cc1)NC1CCCC1`, the kinetic solubility was found to be 21.2 µg/mL (≈ 72.5 µM).

In turn, `CCN(c1ccccc1)S(=O)(=O)c1ccc(C(=O)N(C)Cc2cccs2)cc1` came in with a solubility (kinetic) of 20.9 µg/mL (≈ 50.4 µM).

`Br.Oc1ccc(-c2cn3ccccc3n2)cc1` had a solubility (kinetic) of 36.5 µg/mL.

As to `COC(=O)C1=C(C)N(C)C(=O)NC1c1ccc(O)c(Cl)c1` (configuration not stated), the kinetic solubility is > 46.6 µg/mL.

For `Cc1ccc(NC(=O)CNC(=O)c2cccc(C)c2)nc1`, the kinetic solubility was > 42.5 µg/mL.

With `CC(Sc1ccc2ccccc2c1)C(=O)NC(N)=O` (configuration not stated), the solubility (kinetic) amounted to 8.6 µg/mL (≈ 31.3 µM).

As for `O=C(COc1ccc(Cl)cc1Cl)c1ccc[nH]1`, the solubility (kinetic) was found to be 34.9 µg/mL (≈ 129 µM).

As for `CN1C(=O)N(c2nnc(C(C)(C)C)s2)C(=O)C1c1ccccc1` (configuration not stated), the kinetic solubility was > 49.6 µg/mL.

For `CN(C(=O)CN1C(=O)c2ccc([N+](=O)[O-])cc2C1=O)C1CCCCC1`, the solubility (kinetic) was > 51.8 µg/mL.

In turn, `O=C(Nc1cccc(F)c1)Nc1c[nH]c(=O)[nH]c1=O` gave a solubility (kinetic) of 2.4 µg/mL (≈ 9.08 µM).

`O=C(Nc1ccncc1)c1ccc2ccccc2c1`: the kinetic solubility is 16.5 µg/mL (≈ 66.5 µM).

Compound `CC[n+]1ccc(/C=C/c2c[nH]c3ccccc23)cc1.[Cl-]` yielded a kinetic solubility of 32.8 µg/mL.

Compound `CN(CC(=O)Nc1ccc(OC(F)(F)F)cc1)C(=O)Cc1cccs1` yielded a solubility (kinetic) of 9.3 µg/mL (≈ 25 µM).

On to `O=C(NC(=S)Nc1ccccc1Cl)c1cncc(Br)c1`, for which the solubility (kinetic) was 1.2 µg/mL (≈ 3.24 µM). This solubility kinetic is about 7.8-fold lower than that of the compound before.

For the compound `Cc1cccc(NC(=O)CCN2C(=O)c3ccccc3C2=O)c1`, the solubility (kinetic) is > 46.3 µg/mL.

`CC(=O)c1ccc(NC(=O)N2CCN(c3ccc(C)cc3)C(C)C2)cc1` (configuration not stated): the kinetic solubility is 39.4 µg/mL (≈ 112 µM).

In turn, `COc1ccc(OC2CCN(S(=O)(=O)c3ccccc3)CC2)cc1` displayed a solubility (kinetic) of 4.8 µg/mL (≈ 13.8 µM).

In turn, `CCOc1cc(-c2nc3ccccc3s2)ccc1O` registered a kinetic solubility of 1.1 µg/mL (≈ 4.05 µM).

Take `O=C(COC(=O)c1ccc(O)cc1)Nc1ccc(S(=O)(=O)N2CCCC2)cc1`: the kinetic solubility was > 60.7 µg/mL.

Regarding `CCOC(=O)CSc1nc2cccnc2n1C`, the kinetic solubility was > 37.7 µg/mL.

As to `Cc1ccc(C(O)(CNCc2ccccc2)c2ccccc2)cc1` (configuration not stated), the kinetic solubility is 26.2 µg/mL (≈ 82.5 µM).

As to `COc1cccc(NC(=O)COC(=O)C2CC2)c1`, the solubility (kinetic) was > 37.4 µg/mL.

Regarding `CC(O)CNCc1ccccc1C(F)(F)F.Cl` (configuration not stated), the solubility (kinetic) was > 40.5 µg/mL.

On to `COc1ccccc1CNC(=O)COC(=O)c1ccc(S(=O)(=O)N2CCCCC2)cc1`, for which the kinetic solubility was determined as 2.1 µg/mL (≈ 4.7 µM).

Turning to `C=CCN1C(=O)N(CC=C)c2cccc3cccc1c23`, the solubility (kinetic) is 0.4 µg/mL (≈ 1.51 µM).

`Cc1cc(C)c(OCC(=O)OC(C)C(=O)NC2CC2)c(C)c1` (configuration not stated): the solubility (kinetic) was > 45.8 µg/mL.

Take `S=C(c1ccc(-c2cccc(Cl)c2)o1)N1CCCCC1`: the solubility (kinetic) was found to be 6.1 µg/mL (≈ 19.9 µM).

Take `Cc1noc(C)c1C(=O)Nc1cccc2ncccc12`: the solubility (kinetic) was > 40.1 µg/mL.

For `CCOP(=O)(OCC)C(O)c1ccc(N(C)C)cc1` (configuration not stated), the solubility (kinetic) is > 43.1 µg/mL.

As for `CN(C(=O)Nc1ccc(C(C)(C)C)cc1)C1CCCCC1`, the kinetic solubility was < 0.3 µg/mL.

`Cc1ccccc1Cn1c(C)cc(C)c(C#N)c1=O` came in with a solubility (kinetic) of 8.1 µg/mL (≈ 32.1 µM).

`COc1ccc(OCC(=O)NCCCn2ccnc2)cc1.Cl`: the kinetic solubility was > 48.9 µg/mL.

`COc1ccc2c(c1)C(NC(C)=O)C(=O)N2CCc1ccccc1` (configuration not stated) displayed a solubility (kinetic) of 46.6 µg/mL (≈ 144 µM).

Regarding `Cc1ccc(NCC(=O)N/N=C/c2ccc(C(=O)O)cc2)cc1`, the kinetic solubility is > 46.7 µg/mL.

`O=C(NCc1ccco1)c1ccc2c(c1)OCCO2`: the solubility (kinetic) was determined as 37.6 µg/mL (≈ 145 µM).

Turning to `COc1cccc(N2C(=O)CC(N3CCc4ccccc4C3)C2=O)c1` (configuration not stated), the kinetic solubility was found to be 50.4 µg/mL (≈ 150 µM).

In the case of `COc1nc(Nc2ccccc2)nc(OC)n1`, the kinetic solubility is > 34.8 µg/mL.

Regarding `O=S1(=O)NC(=NCCOCCO)c2ccccc21`, the kinetic solubility was > 40.5 µg/mL.

`O=Cc1c(NCc2ccco2)nc2ccccn2c1=O`: the solubility (kinetic) is 19.5 µg/mL (≈ 72.4 µM).

As to `Cc1ccc(S(=O)(=O)CCC(=O)Nc2sccc2C(N)=O)cc1`, the solubility (kinetic) is > 52.9 µg/mL.

`CCN1CCN(S(=O)(=O)c2ccc(Cl)c(C(=O)NCc3nc4ccccc4[nH]3)c2)CC1`: the kinetic solubility stood at 18.8 µg/mL (≈ 40.7 µM).

Take `NC(=O)CSc1nc2ccc([N+](=O)[O-])cc2[nH]1`: the solubility (kinetic) was > 37.8 µg/mL.

Consider `Cc1nn(C)c(C)c1NC(=O)/C(C#N)=C\N(C)C`, for which the kinetic solubility is > 37.1 µg/mL.

The compound `Cc1nc(-c2ccccc2OC(F)(F)F)[nH]c(=O)c1Cl` showed a kinetic solubility of 43.2 µg/mL (≈ 142 µM).

As for `COc1cc2c(cc1OC)C(c1c(Cl)cccc1Cl)NC(=O)C2` (configuration not stated), the kinetic solubility is > 52.8 µg/mL.

Regarding `COc1ccc(/C=C2\N=C(C)OC2=O)cc1[N+](=O)[O-]`, the solubility (kinetic) was 25.7 µg/mL (≈ 98 µM).

For `O=[N+]([O-])c1ccc(O)c(Nc2c([N+](=O)[O-])ccc3nonc23)c1`, the solubility (kinetic) was > 47.6 µg/mL.

The compound `CSc1ccccc1C(=O)OCC(=O)Nc1cccnc1Cl` came in with a solubility (kinetic) of 15.6 µg/mL (≈ 46.3 µM).

For the compound `CC(OC(=O)c1c[nH]c2ccccc12)C(=O)N1CCCC1` (configuration not stated), the solubility (kinetic) is > 42.9 µg/mL.
